Source: the NIST ThermoML archive (doi:10.1016/j.fluid.2014.01.008)
± gives the expanded uncertainty stated by the source.

Conditions: Crystal; DTA

In the case of O=C1C=CC(=O)O1 [maleic anhydride], the Normal melting temperature is reported as 52.80 ± 0.5 °C.
